Assay results from patent publication US7910551B2, “Gene differentially expressed in breast and bladder cancer and encoded polypeptides” (University of Rochester, priority 2000, dated 2011).

System: B/C.N cells
Assay: CML assay: peptide sensitization of B/C.N cells to lysis by tumor-specific CTL
Type: cell-based, mouse
Conditions: for ability to sensitize B/C.N cells to lysis by tumor-specific CTL: 51Cr release, 4 hours

| Substance | ability to sensitize B/C.N cells to lysis by tumor-specific CTL | peptide concentration that did not sensitize targets to lysis by CTL (B/C.N targets) | peptide concentration sufficient to sensitize targets to lysis by CTL (B/C.N targets) |
| --- | --- | --- | --- |
| L348-56 (T54): wild type ribosomal protein L3 peptide 48-56 with Thr 54 (GYKAGMTHI) [reference compound] | did not | > 100 mM | – |
| L348-56 (I54): ribosomal protein L3 peptide, amino acids 48-56 with Ile 54; target epitope of tumor-specific CTL (GYKAGMIHI) | sensitized B/C.N to lysis | – | 10 nM |
| L345-54 (I54): ribosomal protein L3 peptide, amino acids 45-54 with Ile 54 (AFLGYKAGMI) | did not | – | – |
